Patent US9815854B2, “3-(3H-imidazo[4,5-B]pyridin-2-yl)-1H-pyrazolo[3,4-C]pyridine and therapeutic uses thereof” (Samumed, LLC, priority 2014, dated 2017)

Assays:
[1] = system: Wnt activity (Sp5-Luc reporter, TCF/LEF binding sites) in SW480 colon carcinoma cells; assay: Sp5-Luc Wnt reporter gene screening assay in SW480 colon carcinoma cells; type: cell-based, human; settings: Homo sapiens
How it was run: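 SW480 cells stably transduced with a lentiviral luciferase reporter driven by a Sp5 promoter with eight TCF/LEF sites were plated at 10,000/well in 10% FCS medium. Luminescence was normalised to DMSO and IC50 derived by four-parameter fit.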

[2] = system: primary human mesenchymal stem cells (hMSCs); assay: Chondrogenesis induction screen in primary human mesenchymal stem cells (nodule imaging, Rhodamine B/Nile Red); type: cell-based; settings: 6 days; for EC (100% of TGF-b3 activity): Homo sapiens, Mesenchymal stem cells, 144 h, concentration required to induce chondrogenesis equivalent to TGF-β3 (10 ng/mL), read-out: Conc (nM) of 100% TGF-β3 activity; for Max. Activity as % TGF-β3 activity: TGF-β3 (10 ng/mL) positive control
Experimental: The above synthesized compounds were screened using primary human mesenchymal stem cells (hMSCs) to determine their ability to induce chondrogenesis (process by which cartilage is developed).
Human Mesenchymal Stern Cell Culture: Primary human mesenchymal stem cells (hMSCs) were purchased from Lonza (Walkersville, Md.) and expanded in Mesenchymal Stem Cell Growth Media (Lonza). Cells between passage 3 and 6 were used for the experiments.
Compound Screening: Each compound was dissolved in DMSO as a 10 mM stock and used to prepare compound source plates. Serial dilution (1:3, 6-point dose-response curves from 2700 nM to 10 nM) and compound transfer was performed using the ECHO 550 (Labcyte, Sunnyvale, Calif.) into 96-well clear bottom assay plates (Greiner Bio-One) with appropriate DMSO backfill for a final DMSO concentration of 0.03%. hMSCs were plated at 20,000 cells/well in 250 μL/well incomplete Chondrogenic induction Medium (Lonza; DMEM, dexamethasone, ascorbate, insulin-transferrin-selenium [ITS supplement], gentamycin-amphotericin [GA-1000], sodium pyruvate, proline and L-glutamine). TGF-β3 (10 ng/mL) was used as a positive control for differentiation while negative control wells were treated with 75 nL DMSO for normalization and calculating EC50 values. Cells were incubated at 37° C. and 5% CO2 for 6 days. To image chondrogenic nodules, the cells were fixed using 4% formaldehyde (Electron Microscopy Sciences), and stained with 2 μg/mL Rhodamine B (Sigma-Aldrich) and 20 μM Nile Red (Sigma-Aldrich) [Johnson K., et.al, A Stem Cell-Based Approach to Cartilage Repair, Science, (2012), 336(6082), 717-721]. The nodules imaged (4 images per well at 4× magnification) by excitation at 531 nm and emission at 625 nm and quantified using the CellInsight CX5 (Thermo Scientific). Number of nodules in each well was normalized to the average of 3 DMSO treated wells on the same plate using Excel (Microsoft Inc.). The normalized averages (fold change over DMSO) of 3 replicate wells for each compound concentration were calculated. Due to solubility limitations of some of the compounds, curve fitting was incomplete leading to inaccurate EC50 determinations.
Using TGF-β3 as a positive control, the concentration of test compounds required to induce equivalent levels of chondrogenesis is reported. In addition, the maximum activity of each compound and the respective dose that each compound reached maximum chondrogenesis activity is reported.

[3] = system: primary human fibroblasts derived from IPF patients (LL29 cells); assay: Inhibition of the fibrotic process in TGF-β1-treated primary human fibroblasts from IPF patients (αSMA staining); type: cell-based; settings: Fibroblast, 96 h, TGF-β1 20 ng/mL, 4 days, read-out: Inhibition of fibrosis EC50
How it was run: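 IPF-derived LL29 lung fibroblasts, 1,500 per well in F12 with 1% FBS, treated with compound (10 μM to […], 0.1% DMSO) and TGF-β1 20 ng/mL for 4 days at 37 °C. αSMA-positive live cells imaged and normalised to TGF-β1 controls; EC50 by nonlinear regression over triplicate wells.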

SMILES | IC50 [1] [nM] | EC (100% of TGF-b3 activity) [2] [nM] | EC50 [3] [nM] | Max. Activity as % TGF-β3 activity [2] [%]
Fc1cccc(-c2ccnc3[nH]c(-c4n[nH]c5cnc(-c6cncc(CN7CCC(F)(F)C7)c6)cc45)nc23)c1 [Compound 25, 5-(5-((3,3-Difluoropyrrolidin-1-yl)methyl)pyridin-3-yl)-3-(7-(3-fluorophenyl)-3H-imidazo[4,5-b]pyridin-2-yl)-1H-pyrazolo[3,4-c]pyridine] | 22.1 | 112 | 20 | 
CC(C)(C)CC(=O)Nc1cncc(-c2cc3c(-c4nc5c(-c6ccccc6F)ccnc5[nH]4)n[nH]c3cn2)c1 [Compound 68, N-(5-(3-(7-(2-Fluorophenyl)-3H-imidazo[4,5-b]pyridin-2-yl)-1H-pyrazolo[3,4-c]pyridin-5-yl)pyridin-3-yl)-3,3-dimethylbutanamide] | 24.4 | 9.3 | 90 | 
FC1(F)CCN(Cc2cncc(-c3cc4c(-c5nc6c(N7CCCCC7)ccnc6[nH]5)n[nH]c4cn3)c2)C1 [Compound 181, 5-(5-((3,3-Difluoropyrrolidin-1-yl)methyl)pyridin-3-yl)-3-(7-(piperidin-1-yl)-3H-imidazo[4,5-b]pyridin-2-yl)-1H-pyrazolo[3,4-c]pyridine] | 16.7 | 25.6 | 53 | 
c1cncc(-c2cc3c(-c4nc5cccnc5[nH]4)n[nH]c3cn2)c1 [Compound 238] | 16.1 | 113 | 369 | 30
CC(C)(C)C(=O)Nc1cncc(-c2cc3c(-c4nc5c(-c6ccsc6)ccnc5[nH]4)n[nH]c3cn2)c1 [Compound 268, N-(5-(3-(7-(Thiophen-3-yl)-3H-imidazo[4,5-b]pyridin-2-yl)-1H-pyrazolo[3,4-c]pyridin-5-yl)pyridin-3-yl)pivalamide] | 9.7 | 25.8 | 141 | 
CCCC(=O)Nc1cncc(-c2cc3c(-c4nc5c(-c6cccs6)ccnc5[nH]4)n[nH]c3cn2)c1 [Compound 329, N-(5-(3-(7-(Thiophen-2-yl)-3H-imidazo[4,5-b]pyridin-2-yl)-pyrazolo[3,4-c]pyridin-5-yl)pyridin-3-yl)butyramide] | 17.5 | 110 | 34 | 300
CC(C)Nc1cncc(-c2cc3c(-c4nc5c(-c6cc(F)cc(NCCN(C)C)c6)ccnc5[nH]4)n[nH]c3cn2)c1 [Compound 454, N^1-(3-Fluoro-5-(2-(5-(5-(isopropylamino)pyridin-3-yl)-1H-pyrazolo[3,4-c]pyridin-3-yl)-3H-imidazo[4,5-b]pyridin-7-yl)phenyl)—N^2,N^2-dimethylethane-1,2-diamine] | 94.7 |  | 746 | 
Fc1cccc(-c2ccnc3[nH]c(-c4n[nH]c5cnc(-c6cn[nH]c6)cc45)nc23)c1 [Compound 939, 3-(7-(3-Fluorophenyl)-3H-imidazo[4,5-b]pyridin-2-yl)-5-(1H-pyrazol-4-yl)-1H-pyrazolo[3,4-c]pyridine] | 198 |  | 14 | 
Cn1cc(-c2cc3c(-c4nc5c(-c6cccc(F)c6)ccnc5[nH]4)n[nH]c3cn2)cn1 [Compound 940, 3-(7-(3-Fluorophenyl)-3H-imidazo[4,5-b]pyridin-2-yl)-5-(1-methyl-1H-pyrazol-4-yl)-1H-pyrazolo[3,4-c]pyridine] | 405 |  | 353 | 
NC1CN(c2cncc(-c3cc4c(-c5nc6c(-c7cccc(F)c7)ccnc6[nH]5)n[nH]c4cn3)n2)C1 [Compound 942, 1-(6-(3-(7-(3-Fluorophenyl)-3H-imidazo[4,5-b]pyridin-2-yl)-1H-pyrazolo[3,4-c]pyridin-5-yl)pyrazin-2-yl)azetidin-3-amine] | 1490 |  | 1470 | 
COc1cncc(-c2cc3c(-c4nc5c(-c6cccc(F)c6)ccnc5[nH]4)n[nH]c3cn2)c1 [Compound 948, 3-(7-(3-Fluorophenyl)-3H-imidazo[4,5-b]pyridin-2-yl)-5-(5-methoxypyridin-3-yl)-1H-pyrazolo[3,4-c]pyridine] | 850 |  | 632 | 
Oc1cncc(-c2cc3c(-c4nc5c(-c6cccc(F)c6)ccnc5[nH]4)n[nH]c3cn2)c1 [Compound 949, 5-(3-(7-(3-Fluorophenyl)-3H-imidazo[4,5-b]pyridin-2-yl)-1H-pyrazolo[3,4-c]pyridin-5-yl)pyridin-3-ol] | 111 | 143 | 31 | 100
Fc1cccc(-c2ccnc3[nH]c(-c4n[nH]c5cnc(-c6cnccn6)cc45)nc23)c1 [Compound 954, 3-(7-(3-Fluorophenyl)-3H-imidazo[4,5-b]pyridin-2-yl)-5-(pyrazin-2-yl)-1 H-pyrazolo[3,4-c]pyridine] | 661 |  | ≥ 9990 | 

Further lines, with some results ahead:

IC50 [1] [nM] | SMILES | EC (100% of TGF-b3 activity) [2] [nM] | EC50 [3] [nM] | Max. Activity as % TGF-β3 activity [2] [%]
10.3 | CC(C)Nc1cncc(-c2cc3c(-c4nc5c(-c6ccc(F)cc6)ccnc5[nH]4)n[nH]c3cn2)c1 [Compound 38, 5-(3-(7-(4-Fluorophenyl)-3H-imidazo[4,5-b]pyridin-2-yl)-1H-pyrazolo[3,4-c]pyridin-5-yl)-N-isopropylpyridin-3-amine] | 74.9 | 34 | 300
9.5 | CCCC(=O)Nc1cncc(-c2cc3c(-c4nc5c(-c6ccc(C)s6)ccnc5[nH]4)n[nH]c3cn2)c1 [Compound 381, N-(5-(3-(7-(5-Methylthiophen-2-yl)-3H-imidazo[4,5-b]pyridin-2-yl)-1H-pyrazolo[3,4-c]pyridin-5-yl)pyridin-3-yl)butyramide] | 59.6 | 18 | 
23.3 | Cc1ccncc1-c1cc2c(-c3nc4c(-c5cc(F)cc(CNS(C)(=O)=O)c5)ccnc4[nH]3)n[nH]c2cn1 [Compound 421, N-(3-Fluoro-5-(2-(5-(4-methylpyridin-3-yl)-1H-pyrazolo[3,4-c]pyridin-3-yl)-3H-imidazo[4,5-b]pyridin-7-yl)benzyl)methanesulfonamide] | 70 |  | 30
1740 | CN(C)CCNc1cc(F)cc(-c2ccnc3[nH]c(-c4n[nH]c5cnc(-c6cncc(CNCC7CCCC7)c6)cc45)nc23)c1 [Compound 466, N^1-(3-(2-(5-(5-(((Cyclopentylmethyl)amino)methyl)pyridin-3-yl)-1H-pyrazolo[3,4-c]pyridin-3-yl)-3H-imidazo[4,5-b]pyridin-7-yl)-5-fluorophenyl)—N2,N2-dimethylethane-1,2-diamine] |  | ≤ 9 | 
> 10000 | Cc1ncc(-c2cc3c(-c4nc5c(-c6cccc(F)c6)ccnc5[nH]4)n[nH]c3cn2)n1C [Compound 941] |  | 1000 | 
463 | O=C(CC1CCNCC1)Nc1cncc(-c2cc3c(-c4nc5c(-c6cccc(F)c6)ccnc5[nH]4)n[nH]c3cn2)c1 [Compound 945] | 54.7 | 40 | 
1600 | CN(C)CCOc1cncc(-c2cc3c(-c4nc5c(-c6cccc(F)c6)ccnc5[nH]4)n[nH]c3cn2)c1 [Compound 947, 2-((5-(3-(7-(3-Fluorophenyl)-3H-imidazo[4,5-b]pyridin-2-yl)-1H-pyrazolo[3,4-c]pyridin-5-yl)pyridin-3-yl)oxy)-N,N-dimethylethan-1-amine] |  | ≥ 9990 | 
> 10000 | COc1cc(F)cc(-c2ccnc3[nH]c(-c4n[nH]c5cnc(-c6cncc(NC(=O)CC(C)C)c6)cc45)nc23)c1 [Compound 1394, N-(5-(3-(7-(3-Fluoro-5-methoxyphenyl)-3H-imidazo[4,5-b]pyridin-2-yl)-1H-pyrazolo[3,4-c]pyridin-5-yl)pyridin-3-yl)-3-methyl butanamide] |  | 495 | 
